{"source": "patent US20090042946A1", "about": "“METHOD AND KIT FOR C[…]” (priority 2003, published 2009)", "tested_on": "severed left femoral artery", "assay": "Severed femoral artery bleeding model in anesthetized mice, topical VRA by cotton-tipped applicator", "format": "in vivo", "description": "Approximately 4 to 6 week old white mice weighing about 20 grams were anesthetized using 50 microliters of anesthetic (ketamine+xylazine) intraperitoneally. The area near the inguinal region (1.75 cm proximal to the ankle) was shaved and a 0.5 to 1 cm incision was made such that the left femoral artery was severed. The incision was washed with normal saline. Control animals were treated with saline while test animals were treated with a VRA (alvinil) (approx. 500 microliters of a 0.8 mmol solution) administered topically with a cotton-tipped applicator soaked with the VRA solution over the wound. The applicator was then removed after 5 seconds and the wound was evaluated for signs of hemorrhage.\nIn the control mice, the wound was continuously flushed with saline.\nIn the treatment group of animals, the wound was treated with arvinil by swab application, then flushed once with saline. […] After 10 minutes, a second incision was made in the femoral artery above the previous cut resulting in severe hemorrhage.", "data": [{"smiles": "CCCCC/C=C\\C/C=C\\C/C=C\\C/C=C\\CCCC(=O)NCc1ccc(O)c(OC)c1", "note": "[arvinil]", "values": [{"measurement": "signs of shock", "setting": "during the course of the experiment after topical treatment of the severed femoral artery", "result": "No signs of shock"}, {"measurement": "heart perfusion at euthanasia (KCl heart puncture)", "setting": "end of experiment after topical treatment of both cuts", "result": "fully perfused"}, {"measurement": "bleeding from second incision in femoral artery after application", "setting": "second incision above the previous cut after 10 minutes caused severe hemorrhage, topical application to the second cut", "result": "cessation of bleeding"}, {"measurement": "bleeding from severed femoral artery after treatment", "setting": "swab application, approx. 500 microliters of 0.8 mmol solution, applicator removed after 5 seconds, observed following one saline flush", "result": "No bleeding was observed"}]}]}
